The results in this text go back to patent US12404241B2 (Celgene Corporation, priority 2018, dated 2025).

The assay deals with T1, AR (Homo sapiens, UniProt P10275).
T1 construct: endogenous in cells; host or cells: VCaP cells
T1 sequence (P10275 1-920): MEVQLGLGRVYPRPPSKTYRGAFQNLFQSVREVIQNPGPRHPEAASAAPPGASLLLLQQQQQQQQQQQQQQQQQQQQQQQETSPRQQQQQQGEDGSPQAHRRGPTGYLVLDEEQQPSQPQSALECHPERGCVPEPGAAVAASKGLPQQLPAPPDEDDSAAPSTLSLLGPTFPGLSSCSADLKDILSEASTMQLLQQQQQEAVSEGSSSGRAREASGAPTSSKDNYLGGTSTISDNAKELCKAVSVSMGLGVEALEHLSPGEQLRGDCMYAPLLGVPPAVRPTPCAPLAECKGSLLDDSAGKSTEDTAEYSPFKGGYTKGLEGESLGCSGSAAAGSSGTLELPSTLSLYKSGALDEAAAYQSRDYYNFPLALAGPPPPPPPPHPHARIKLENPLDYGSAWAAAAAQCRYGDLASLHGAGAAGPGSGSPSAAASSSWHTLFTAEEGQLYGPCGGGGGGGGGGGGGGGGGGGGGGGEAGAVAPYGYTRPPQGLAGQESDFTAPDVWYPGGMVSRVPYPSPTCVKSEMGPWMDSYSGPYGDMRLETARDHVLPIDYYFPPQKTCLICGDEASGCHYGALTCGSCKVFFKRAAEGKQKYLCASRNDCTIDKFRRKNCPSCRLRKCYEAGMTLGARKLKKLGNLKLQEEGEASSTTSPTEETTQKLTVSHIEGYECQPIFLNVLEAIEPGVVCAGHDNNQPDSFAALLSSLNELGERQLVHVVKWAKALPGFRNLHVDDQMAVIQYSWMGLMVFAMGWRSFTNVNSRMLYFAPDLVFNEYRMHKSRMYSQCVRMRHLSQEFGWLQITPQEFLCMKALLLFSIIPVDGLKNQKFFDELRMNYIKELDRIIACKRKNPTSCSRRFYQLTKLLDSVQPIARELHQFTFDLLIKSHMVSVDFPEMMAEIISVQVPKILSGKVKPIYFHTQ
Nature of the assay: VCAP AR Degradation Assay. The conditions noted are these: for Y (AR degradation efficiency, % of DMSO control): class symbols *; for DC50: class symbols A-C, read-out: DC50. The assay is classed as cell-based. In short, it runs like this:
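VCaP cells treated 24 h at 37 °C with a 10-point 1:3 series (top 5 μM final; 0.1% DMSO control). Lysate AR measured by sandwich ELISA, normalized to DMSO as percent of control; DC50, EC50 and lowest AR level (Y) from four-parameter logistic fit.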

Usually DC50 stands for the concentration giving 50% degradation. Turning to `CC(C)c1cc(N2C(=S)N(c3ccc(C#N)c(C(F)(F)F)c3)C(=O)C2(C)C)ccc1OCCN1C[C@@H](C)N(CC(=O)Nc2cc(F)cc(NC3CCC(=O)NC3=O)c2)[C@@H](C)C1` (stereo partly drawn) [Example 213, 2-((2S,6R)-4-(2-(4-(3-(4-cyano-3-(trifluoromethyl)phenyl)-5,5-dimethyl-4-oxo-2-thioxoimidazolidin-1-yl)-2-isopropylphenoxy)ethyl)-2,6-dimethylpiperazin-1-yl)-N-(3-(2,6-dioxopiperidin-3-ylamino)-5-fluorophenyl)acetamide], the “Y (AR degradation efficiency, % of DMSO control)” value is on record as “* (0<Y<=25%)” and the half-maximal degradation concentration (DC50) is under 100 nM.
Consider `CC(C)c1cc(N2C(=S)N(c3ccc(C#N)c(C(F)(F)F)c3)C(=O)C2(C)C)cnc1OCCN1C[C@@H](C)N(CC(=O)Nc2cc(Cl)cc(NC3CCC(=O)NC3=O)c2)C[C@H]1C` (stereo partly drawn) [Example 214, N-(3-chloro-5-(2,6-dioxopiperidin-3-ylamino)phenyl)-2-((2R,5R)-4-(2-(5-(3-(4-cyano-3-(trifluoromethyl)phenyl)-5,5-dimethyl-4-oxo-2-thioxoimidazolidin-1-yl)-3-isopropylpyridin-2-yloxy)ethyl)-2,5-dimethylpiperazin-1-yl)acetamide], for which the “Y (AR degradation efficiency, % of DMSO control)” value is reported as “** (25%<Y<=35%)” and the DC50 lay within 100 to 500 nM.
On to `C[C@@H]1CN(CCOc2ccc(N3C(=S)N(c4cnc(C#N)c(C(F)(F)F)c4)C(=O)C34CCC4)cc2C2CC2)C[C@H](C)N1CC(=O)Nc1cc(Cl)cc(NC2CCC(=O)NC2=O)c1` (stereo partly drawn) [Example 215, N-(3-chloro-5-(2,6-dioxopiperidin-3-ylamino)phenyl)-2-((2S,6R)-4-(2-(4-(7-(6-cyano-5-(trifluoromethyl)pyridin-3-yl)-8-oxo-6-thioxo-5,7-diazaspiro[3.4]octan-5-yl)-2-cyclopropylphenoxy)ethyl)-2,6-dimethylpiperazin-1-yl)acetamide], for which the “Y (AR degradation efficiency, % of DMSO control)” value was “* (0<Y<=25%)” and the DC50 is under 100 nM.
`CCc1cc(N2C(=S)N(c3ccc(C#N)c(C(F)(F)F)c3)C(=O)C2(C)C)cnc1OCCN1C[C@@H](C)N(CC(=O)Nc2cccc(NC3CCC(=O)NC3=O)c2)[C@@H](C)C1` (stereo partly drawn) [Example 216, 2-((2R,6S)-4-(2-(5-(3-(4-cyano-3-(trifluoromethyl)phenyl)-5,5-dimethyl-4-oxo-2-thioxoimidazolidin-1-yl)-3-ethylpyridin-2-yloxy)ethyl)-2,6-dimethylpiperazin-1-yl)-N-(3-(2,6-dioxopiperidin-3-ylamino)phenyl)acetamide]: the “Y (AR degradation efficiency, % of DMSO control)” value is reported as “** (25%<Y<=35%)” and the DC50 is under 100 nM.
Regarding `CC(C)c1cc(N2C(=S)N(c3ccc(C#N)c(C(F)(F)F)c3)C(=O)C2(C)C)ccc1OCCN1C[C@@H](C)N(CC(=O)Nc2cc(NC3CCC(=O)NC3=O)ccc2F)[C@@H](C)C1` (stereo partly drawn) [Example 217, 2-((2S,6R)-4-(2-(4-(3-(4-cyano-3-(trifluoromethyl)phenyl)-5,5-dimethyl-4-oxo-2-thioxoimidazolidin-1-yl)-2-isopropylphenoxy)ethyl)-2,6-dimethylpiperazin-1-yl)-N-(5-(2,6-dioxopiperidin-3-ylamino)-2-fluorophenyl)acetamide], the “Y (AR degradation efficiency, % of DMSO control)” value is listed as “* (0<Y<=25%)” and the half-maximal degradation concentration (DC50) is 500 to 1000 nM.
Regarding `C[C@@H]1CN(CCOc2ccc(N3C(=S)N(c4cnc(C#N)c(C(F)(F)F)c4)C(=O)C34CCC4)cc2C2CC2)C[C@H](C)N1CC(=O)Nc1cc(F)cc(NC2CCC(=O)NC2=O)c1` (stereo partly drawn) [Example 218, 2-((2S,6R)-4-(2-(4-(7-(6-cyano-5-(trifluoromethyl)pyridin-3-yl)-8-oxo-6-thioxo-5,7-diazaspiro[3.4]octan-5-yl)-2-cyclopropylphenoxy)ethyl)-2,6-dimethylpiperazin-1-yl)-N-(3-(2,6-dioxopiperidin-3-ylamino)-5-fluorophenyl)acetamide], the “Y (AR degradation efficiency, % of DMSO control)” value is listed as “* (0<Y<=25%)” and the half-maximal degradation concentration (DC50) is under 100 nM.
As for `C[C@@H]1CN(CCOc2ccc(N3C(=S)N(c4ccc(C#N)c(Cl)c4)C(=O)C3(C)C)cc2C2CC2)C[C@H](C)N1CC(=O)Nc1cc(C#N)cc(NC2CCC(=O)NC2=O)c1` (stereo partly drawn) [Example 219, 2-((2S,6R)-4-(2-(4-(3-(3-chloro-4-cyanophenyl)-5,5-dimethyl-4-oxo-2-thioxoimidazolidin-1-yl)-2-cyclopropylphenoxy)ethyl)-2,6-dimethylpiperazin-1-yl)-N-(3-cyano-5-(2,6-dioxopiperidin-3-ylamino)phenyl)acetamide], the “Y (AR degradation efficiency, % of DMSO control)” value is “** (25%<Y<=35%)” and the DC50 was under 100 nM.
On the same counts, the results for `C[C@@H]1CN(CCOc2ccc(N3C(=S)N(c4ccc(C#N)c(Cl)c4)C(=O)C3(C)C)cc2C2CC2)C[C@H](C)N1CC(=O)Nc1cc(Cl)cc(NC2CCC(=O)NC2=O)c1` (stereo partly drawn) [Example 220, 2-((2S,6R)-4-(2-(4-(3-(3-chloro-4-cyanophenyl)-5,5-dimethyl-4-oxo-2-thioxoimidazolidin-1-yl)-2-cyclopropylphenoxy)ethyl)-2,6-dimethylpiperazin-1-yl)-N-(3-chloro-5-(2,6-dioxopiperidin-3-ylamino)phenyl)acetamide] are “** (25%<Y<=35%)” and under 100 nM.
Taken in the same sequence, the figures for `C[C@@H]1CN(CCOc2ccc(N3C(=S)N(c4ccc(C#N)c(Cl)c4)C(=O)C3(C)C)cc2C2CC2)C[C@H](C)N1CC(=O)Nc1cc(NC2CCC(=O)NC2=O)ccc1F` (stereo partly drawn) [Example 221, 2-((2S,6R)-4-(2-(4-(3-(3-chloro-4-cyanophenyl)-5,5-dimethyl-4-oxo-2-thioxoimidazolidin-1-yl)-2-cyclopropylphenoxy)ethyl)-2,6-dimethylpiperazin-1-yl)-N-(5-(2,6-dioxopiperidin-3-ylamino)-2-fluorophenyl)acetamide] were “** (25%<Y<=35%)” and under 100 nM.
Consider `CC(C)c1cc(N2C(=S)N(c3ccc(C#N)c(Cl)c3)C(=O)C2(C)C)ccc1OCCN1C[C@@H](C)N(CC(=O)Nc2cc(NC3CCC(=O)NC3=O)ccc2F)[C@@H](C)C1` (stereo partly drawn) [Example 222, 2-((2S,6R)-4-(2-(4-(3-(3-chloro-4-cyanophenyl)-5,5-dimethyl-4-oxo-2-thioxoimidazolidin-1-yl)-2-isopropylphenoxy)ethyl)-2,6-dimethylpiperazin-1-yl)-N-(5-(2,6-dioxopiperidin-3-ylamino)-2-fluorophenyl)acetamide], for which the “Y (AR degradation efficiency, % of DMSO control)” value was “* (0<Y<=25%)” and the 50% degradation concentration (DC50) lay in the range of 100 to 500 nM.
Consider `CC(C)c1cc(N2C(=S)N(c3ccc(C#N)c(Cl)c3)C(=O)C2(C)C)ccc1OCCN1C[C@@H](C)N(CC(=O)Nc2cc(Cl)cc(NC3CCC(=O)NC3=O)c2)[C@@H](C)C1` (stereo partly drawn) [Example 223, 2-((2S,6R)-4-(2-(4-(3-(3-chloro-4-cyanophenyl)-5,5-dimethyl-4-oxo-2-thioxoimidazolidin-1-yl)-2-isopropylphenoxy)ethyl)-2,6-dimethylpiperazin-1-yl)-N-(3-chloro-5-(2,6-dioxopiperidin-3-ylamino)phenyl)acetamide], for which the “Y (AR degradation efficiency, % of DMSO control)” value is given as “** (25%<Y<=35%)” and the DC50 lay in the range of 100 to 500 nM.
As for `CC(C)c1cc(N2C(=S)N(c3ccc(C#N)c(C(F)(F)F)c3)C(=O)C2(C)C)cnc1OCCN1C[C@@H](C)N(CC(=O)Nc2cccc(NC3CCC(=O)NC3=O)c2)[C@@H](C)C1` (stereo partly drawn) [Example 224, 2-((2R,6S)-4-(2-(5-(3-(4-cyano-3-(trifluoromethyl)phenyl)-5,5-dimethyl-4-oxo-2-thioxoimidazolidin-1-yl)-3-isopropylpyridin-2-yloxy)ethyl)-2,6-dimethylpiperazin-1-yl)-N-(3-(2,6-dioxopiperidin-3-ylamino)phenyl)acetamide], the “Y (AR degradation efficiency, % of DMSO control)” value is on record as “** (25%<Y<=35%)” and the DC50 was in the range of 100 to 500 nM.
As to `C[C@@H]1CN(CCOc2ccc(N3C(=S)N(c4ccc(C#N)c(C(F)(F)F)c4)C(=O)C34CCC4)cc2C2CC2)C[C@H](C)N1CC(=O)Nc1cccc(NC2CCC(=O)NC2=O)c1` (stereo partly drawn) [Example 225, 2-((2R,6S)-4-(2-(4-(7-(4-cyano-3-(trifluoromethyl)phenyl)-8-oxo-6-thioxo-5,7-diazaspiro[3.4]octan-5-yl)-2-cyclopropylphenoxy)ethyl)-2,6-dimethylpiperazin-1-yl)-N-(3-(2,6-dioxopiperidin-3-ylamino)phenyl)acetamide], the “Y (AR degradation efficiency, % of DMSO control)” value is recorded as “* (0<Y<=25%)” and the half-maximal degradation concentration (DC50) was under 100 nM.
